Source: patent US20260183276A1, “miRNA DYSREGULATION CORRECTION AS A STRATEGY TO TREAT HUNTINGTON'S DISEASE” (The Chinese University of Hong Kong, priority 2022, published 2026)
Entries after “also recorded” stand apart in the source; their conditions may differ.

Legend:
[1] = tested on: TAK1-MKK4-JNK pro-apoptotic signaling in EGFPCAG78-expressing cells; experiment: Western blotting of TAK1-MKK4-JNK caspase cascade, EGFPCAG78-expressing cells; format: cell-based; conditions: for TAB2 expression / TAB1 expression / TAK1-triggered cell death: EGFPCAG78-transfected cells; for EGFPCAG78-induced TAK1 functional deregulation: FIG. 9B; for TAK1-triggered cell death: FIG. 9A
Experimental: (§1) SK-N-MC cells (ATCC) were cultured in DMEM (GE Healthcare BioSciences) supplemented with 10% fetal bovine serum and 1% penicillin-streptomycin. Cells were maintained in a 37° C. humidified cell culture incubator supplemented with 5% CO2. Plasmid DNA and siRNA/synthetic miRNA transfection was performed using Lipofectamine 2000 (Thermo Fisher Scientific) and Lipofectamine RNAiMAX (Thermo Fisher Scientific), respectively.
(§2) Proteins were extracted from SK-N-MC cells or mouse primary cortical neurons using SDS sample buffer. For protein extraction from mice, half of the brain was homogenized in protein lysis buffer (50 mM Tris-HCl, pH 7.6, 150 mM NaCl, 10% NP40, 5% sodium deoxycholate). All protein samples were boiled at 99° C. for 10 minutes, prior to Western blotting. Primary antibodies used were anti-PAPD5 (PA5-46747, 1:1,000) from Invitrogen; anti-p-TAK1 (4536, 1:1,000), anti-t-TAK1 (4505, 1:2,000), anti-p-MKK4 (9156, 1:1,000), anti-t-MKK4 (9152, 1:2,000), anti-p-MKK7 (4171, 1:1,000), anti-t-MKK7 (4172, 1:2,000), anti-p-JNK (9251, 1:2,000), anti-t-JNK (9252, 1:2,000), anti-TAB1 (3226, 1:2,000), anti-TAB2 (3745, 1:2,000), anti-cleaved caspase 3 (9664, 1:500) and anti-myc (2276, 1:2,000) from Cell Signaling Technology; antipolyQ (P1874, 1:1,000) and anti-HA (H3663, 1:2,000) from Sigma-Aldrich; anti-YY1 (ab109237, 1:2000) and anti-β-tubulin (ab6046, 1:2,000) from Abcam, and anti-GFP (JL-8, 1:4,000) from Clontech. Secondary antibodies used were goat anti-rabbit (11035-045, 1:5,000) and goat anti-mouse (115-035-062, 1:5,000) from Jackson ImmunoResearch.

[2] = tested on: PAPD5-overexpressing cells; experiment: LDH cell death assay, PAPD5-overexpressing cells; format: cell-based; conditions: PAPD5 overexpression
Experimental: as §1
(§3) The LDH assay on SK-N-MC cells were performed according to manufacturer's instructions (CytoTox 96 Non-Radioactive Cytotoxicity Assay Kit, Promega).

[3] = tested on: EGFP-Htt1-550CAG89-expressing SK-N-MC cells; experiment: LDH cell death assay, EGFP-Htt1-550CAG89-expressing SK-N-MC cells; format: cell-based
Experimental: as §1, §3

[4] = tested on: TAK1-MKK4-JNK pro-apoptotic signaling in EGFP-Htt1-550CAG89-expressing cells; experiment: Western blotting of TAK1-MKK4-JNK caspase cascade, EGFP-Htt1-550CAG89-expressing SK-N-MC cells; format: cell-based
Experimental: as §1, §2

[5] = tested on: EGFPCAG78-expressing SK-N-MC cells; experiment: LDH cell death assay, EGFPCAG78-expressing SK-N-MC cells; format: cell-based
Experimental: as §1, §3

[6] = tested on: TAK1-MKK4-JNK pro-apoptotic signaling in PAPD5-overexpressing cells; experiment: Western blotting of TAK1-MKK4-JNK caspase cascade, PAPD5-overexpressing cells; format: cell-based
Experimental: as §1, §2

A-beta peptide toxicity = experiment: A-beta1-42 peptide transgenic Drosophila model of Alzheimer's Disease; format: in vivo; conditions: A-beta1-42 transgenic Drosophila

## miR-22-5p: miRNA (IDT), SEQ ID NO: 14, predicted to target TAB2 (AGUUCUUCAGUGGCAAGCUUUA; listed as RNA, chemistry not given here)
[1]
  TAB2 expression: capable of silencing
  EGFPCAG78-induced TAK1 functional deregulation: inhibiting

## miR-7-5p: miRNA (IDT), SEQ ID NO: 15, predicted to target TAB2
[1]
  TAB2 expression: capable of silencing
  EGFPCAG78-induced TAK1 functional deregulation: inhibiting

## COc1cc(O)c2c(c1)/C=C/C[C@H](O)[C@H](O)C(=O)/C=C\C[C@H](C)OC2=O [5Z-7-oxozeaenol]
[2]
  PAPD5-induced cell death: suppressed
[1]; EGFPCAG78-expressing cells
  TAK1-MKK4-JNK pro-apoptotic signaling (phosphorylation of TAK1, MKK4, JNK, caspase 3 cleavage): suppressed
[3]
  EGFP-Htt1-550CAG89-induced cell death: rescued
[4]
  caspase 3 cleavage: rescued
  phosphorylation levels of TAK1, MKK4 and JNK: rescued
[5]
  mutant CAG RNA (EGFPCAG78)-induced cell death: rescued
[6]
  TAK1/MKK4/JNK phosphorylation: dose-dependent decrease
  caspase 3 cleavage: dose-dependent decrease

## miR-331-3p: miRNA (IDT), SEQ ID NO: 12, predicted to target TAB1 (GCCCCUGGGCCUAUCCUAGAA; listed as RNA, chemistry not given here)
[1]
  TAB1 expression: able to silence
  TAK1-triggered cell death: inhibit

## miR-504: miRNA targeting TAB1, expressed from construct pRI-CMV/GFP-miR-504 (mimic sequence SEQ ID NO: 3) (GACCCTGGTCTGCACTCTATC; listed as DNA, chemistry not fully specified)
[1]; EGFPCAG78-expressing cells, miRNA overexpression
  phosphorylation of TAK1 and JNK, and cleavage of caspase 3: suppressed
[1]
  TAB1 expression: most robust gene-silencing effects; also recorded: reduced
[3]
  EGFP-Htt1-550CAG89-induced cell death: rescued
[4]
  caspase 3 cleavage: rescued
  phosphorylation levels of TAK1, MKK4 and JNK: rescued
[5]
  mutant CAG RNA (EGFPCAG78)-induced cell death: inhibited in a dose-dependent manner

## miR-10a-5p: miRNA (IDT), SEQ ID NO: 10, predicted to target TAB1 (UACCCUGUAGAUCCGAAUUUGUG; listed as RNA, chemistry not given here)
[1]
  TAB1 expression: able to silence
  TAK1-triggered cell death: inhibit

## COCCCOc1cc2c(cc1OC)-c1cc(=O)c(C(=O)O)cn1[C@H](C(C)C)C2 [RG7834]
A-beta peptide toxicity
  A-beta peptide toxicity (retinal degeneration): capable of suppressing
